Data published in PubChem BioAssay AID463131 (The Scripps Research Institute Molecular Screening Center, 2010).

Target: Protein phosphatase methylesterase 1 (Homo sapiens) (UniProt Q9Y570)
Assay: PME-1 inhibition in intact cells, late-stage follow-up, cell-based, fluorescence (AID 463131)
Details: fluorescent probe labeling of PME-1, at 0.5 µM, hits give high values

Chain of Protein phosphatase methylesterase 1 (Homo sapiens) (Q9Y570 whole entry, looked up): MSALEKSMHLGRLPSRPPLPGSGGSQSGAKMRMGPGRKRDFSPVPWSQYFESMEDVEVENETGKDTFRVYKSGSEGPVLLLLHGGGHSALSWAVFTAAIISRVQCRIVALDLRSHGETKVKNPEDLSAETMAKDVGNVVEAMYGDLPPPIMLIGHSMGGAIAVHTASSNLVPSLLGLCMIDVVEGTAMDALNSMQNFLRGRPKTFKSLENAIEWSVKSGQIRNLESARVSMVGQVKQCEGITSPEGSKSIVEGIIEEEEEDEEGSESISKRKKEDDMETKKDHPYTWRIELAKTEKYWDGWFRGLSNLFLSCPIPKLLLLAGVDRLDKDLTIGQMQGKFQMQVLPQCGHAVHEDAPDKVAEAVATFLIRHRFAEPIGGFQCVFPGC

inhibition [%]	SMILES
100	COC(=O)N1C(=O)[C@](c2ccccc2)(C2CCCC2)N1C(=O)OC
100	COC(=O)N1C(=O)[C@](c2ccccc2)(C2CCCCC2)N1C(=O)OC
